# Results reported in ChEMBL document CHEMBL1201862, “PubChem BioAssay data set” (2004).
# Calls of active or inactive are those of the source.
# How the values were obtained:
# [1] = molecular target: Eukaryotic translation initiation factor 4E (Mus musculus, UniProt P63073); assay: eIF4E–eIF4G protein interaction inhibitors, dose response, biochemical, TR-FRET (AID 855); format: functional;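 note: potency for disrupting eIF4E binding to eIF4GI seen as loss of FRET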
# [2] = test system: BJ; assay: cells; format: functional, cell-based; settings: Homo sapiens
# [3] = inhibitors of Vif binding to APOBEC3G peptide, primary screen, biochemical, TR-FRET, GST-Vif 1-94, biotin-A3G peptide, dose response retest (AID 1117319); format: functional;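 note: TR-FRET signal of purified GST-Vif binding a biotinylated A3G peptide; inhibitors lower the FRET signal by blocking Vif and A3G binding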
# [4] = molecular target: T1, Protein skinhead-1 (Caenorhabditis elegans, UniProt P34707); format: functional
# T1 sequence (P34707 whole entry): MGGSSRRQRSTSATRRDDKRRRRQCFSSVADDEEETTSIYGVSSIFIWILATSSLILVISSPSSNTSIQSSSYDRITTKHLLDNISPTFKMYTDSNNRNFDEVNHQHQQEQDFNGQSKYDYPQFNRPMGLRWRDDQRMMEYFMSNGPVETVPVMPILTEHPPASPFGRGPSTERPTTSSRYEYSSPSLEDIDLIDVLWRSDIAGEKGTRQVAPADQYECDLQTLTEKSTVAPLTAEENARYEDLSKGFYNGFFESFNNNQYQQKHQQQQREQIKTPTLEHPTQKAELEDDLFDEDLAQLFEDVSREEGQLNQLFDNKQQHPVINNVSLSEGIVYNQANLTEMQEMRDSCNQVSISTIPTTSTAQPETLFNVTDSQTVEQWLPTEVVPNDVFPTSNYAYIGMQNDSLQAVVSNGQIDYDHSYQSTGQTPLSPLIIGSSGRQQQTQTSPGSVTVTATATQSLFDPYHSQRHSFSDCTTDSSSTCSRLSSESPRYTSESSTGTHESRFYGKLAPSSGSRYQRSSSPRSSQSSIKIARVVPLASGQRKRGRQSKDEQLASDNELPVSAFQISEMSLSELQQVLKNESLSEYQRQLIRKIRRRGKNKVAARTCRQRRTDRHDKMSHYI
# [5] = test system: Vero; assay: Vero cell cytotoxicity, cytotoxicity control for flavivirus capping enzyme inhibitors (AID 588742); format: functional; settings: Chlorocebus sabaeus
# [6] = molecular target: Glucose-6-phosphate 1-dehydrogenase (Homo sapiens, UniProt P11413); assay: human G6PD enzyme inhibitors, dose response, selectivity assay for P. falciparum G6PD inhibitor project, biochemical, fluorescence (AID 504792); format: functional
# [7] = molecular target: T2, Hexokinase-1 (Homo sapiens, UniProt P19367); assay: SAR analysis of small molecule inhibitors of hexokinase domain containing I (HKDC1) in the hexokinase 1 selectivity assay. [Related pubchem assays (depositor defined):AID493160, AID493190]; format: functional
# T2 sequence (P19367 whole entry): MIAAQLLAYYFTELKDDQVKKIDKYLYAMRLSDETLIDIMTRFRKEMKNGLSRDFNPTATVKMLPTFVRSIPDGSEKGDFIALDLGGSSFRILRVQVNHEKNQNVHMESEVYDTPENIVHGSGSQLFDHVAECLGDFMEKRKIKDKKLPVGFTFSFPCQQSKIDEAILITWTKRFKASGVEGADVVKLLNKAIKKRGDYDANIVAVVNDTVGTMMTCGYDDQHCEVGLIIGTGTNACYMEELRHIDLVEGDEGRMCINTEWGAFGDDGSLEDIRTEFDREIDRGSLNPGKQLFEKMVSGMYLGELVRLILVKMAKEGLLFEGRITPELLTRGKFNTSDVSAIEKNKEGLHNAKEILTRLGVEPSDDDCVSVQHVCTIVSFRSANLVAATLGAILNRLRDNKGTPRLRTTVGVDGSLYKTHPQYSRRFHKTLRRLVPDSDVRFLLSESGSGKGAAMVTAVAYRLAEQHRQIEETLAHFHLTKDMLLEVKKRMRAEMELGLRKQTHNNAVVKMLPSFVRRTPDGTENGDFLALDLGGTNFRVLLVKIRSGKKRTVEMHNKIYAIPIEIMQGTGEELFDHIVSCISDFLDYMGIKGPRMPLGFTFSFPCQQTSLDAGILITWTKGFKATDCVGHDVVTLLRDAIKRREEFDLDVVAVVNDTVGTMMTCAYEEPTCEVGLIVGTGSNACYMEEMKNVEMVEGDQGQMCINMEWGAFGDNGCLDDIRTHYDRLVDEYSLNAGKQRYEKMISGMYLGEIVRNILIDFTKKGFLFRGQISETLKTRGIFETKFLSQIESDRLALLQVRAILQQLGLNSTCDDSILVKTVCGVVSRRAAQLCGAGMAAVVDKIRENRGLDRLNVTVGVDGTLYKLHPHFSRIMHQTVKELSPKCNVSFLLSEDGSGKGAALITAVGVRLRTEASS
# [8] = inhibitors of firefly luciferase expression or activity, dose response, H4 neuroglioma cells, luminescence (AID 1990); format: functional, cell-based
# [9] = molecular target: Nonstructural protein 1 (Influenza A virus, UniProt Q194T2); format: functional, Influenza A virus (A/California/07/2009(H1N1))
# [10] = insulin promoter down-regulators in MIN6 cells, imaging, high-content screening, mouse beta cells (AID 1628); format: functional
# [11] = HeLa cell cytotoxicity, dose response, cytotoxicity control for MgcRacGAP inhibitor project (AID 624300); format: functional
# [12] = molecular target: 1-phosphatidylinositol 4,5-bisphosphate phosphodiesterase gamma-1 (Homo sapiens, UniProt P19174); assay: Counterscreen for inhibitors of phospholipase C isozymes (PLC-B3): Fluorescence-based biochemical high throughput dose response assay to identify inhibitors of phospholipase C isozymes (PLC-gamma1).
# [13] = molecular target: Transitional endoplasmic reticulum ATPase (Homo sapiens, UniProt P55072); assay: p97 ATPase inhibitors, dose response, biochemical (AID 1534)
# [14] = molecular target: T3, Alkaline phosphatase, tissue-nonspecific isozyme (Homo sapiens, UniProt P05186); assay: TNAP enzyme activators, dose response, selectivity assay for mouse IAP activator project, biochemical, TNAP isozyme, mouse IAP uHTS hits (AID 488880); format: functional
# T3 sequence (P05186 whole entry): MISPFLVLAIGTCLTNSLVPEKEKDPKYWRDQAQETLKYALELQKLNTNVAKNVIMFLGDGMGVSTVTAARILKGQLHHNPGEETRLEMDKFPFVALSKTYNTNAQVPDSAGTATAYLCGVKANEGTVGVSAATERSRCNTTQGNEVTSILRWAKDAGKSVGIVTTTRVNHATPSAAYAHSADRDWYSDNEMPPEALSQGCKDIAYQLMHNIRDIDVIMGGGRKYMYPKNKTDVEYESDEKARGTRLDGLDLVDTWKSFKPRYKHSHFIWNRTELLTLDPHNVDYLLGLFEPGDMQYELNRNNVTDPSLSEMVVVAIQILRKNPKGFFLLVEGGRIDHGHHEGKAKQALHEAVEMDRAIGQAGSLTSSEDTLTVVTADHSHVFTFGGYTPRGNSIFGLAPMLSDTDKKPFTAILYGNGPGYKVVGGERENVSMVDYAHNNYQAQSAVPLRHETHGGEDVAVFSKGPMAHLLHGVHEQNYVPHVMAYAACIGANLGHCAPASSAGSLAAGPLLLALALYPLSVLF
# [15] = molecular target: Intestinal-type alkaline phosphatase (Homo sapiens, UniProt P09923); assay: activation of human intestinal alkaline phosphatase – biochemical, dose response (AID 488873); format: functional
# Chain of Intestinal-type alkaline phosphatase (P09923 whole entry): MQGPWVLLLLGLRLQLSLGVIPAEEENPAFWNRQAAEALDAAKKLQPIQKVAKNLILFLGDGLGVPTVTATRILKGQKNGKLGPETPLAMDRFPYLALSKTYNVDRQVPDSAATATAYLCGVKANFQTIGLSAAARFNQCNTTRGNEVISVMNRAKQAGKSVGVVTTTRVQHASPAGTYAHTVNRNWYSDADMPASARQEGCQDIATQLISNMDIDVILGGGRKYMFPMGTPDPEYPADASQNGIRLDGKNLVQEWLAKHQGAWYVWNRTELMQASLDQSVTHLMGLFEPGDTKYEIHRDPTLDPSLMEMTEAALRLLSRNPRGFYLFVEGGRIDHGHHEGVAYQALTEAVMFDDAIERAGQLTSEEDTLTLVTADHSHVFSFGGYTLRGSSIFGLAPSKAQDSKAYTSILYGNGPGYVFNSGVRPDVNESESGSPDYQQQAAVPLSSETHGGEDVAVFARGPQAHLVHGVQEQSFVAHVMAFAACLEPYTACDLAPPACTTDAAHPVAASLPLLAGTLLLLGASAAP
# Chain of 1-phosphatidylinositol 4,5-bisphosphate phosphodiesterase gamma-1 (P19174 whole entry): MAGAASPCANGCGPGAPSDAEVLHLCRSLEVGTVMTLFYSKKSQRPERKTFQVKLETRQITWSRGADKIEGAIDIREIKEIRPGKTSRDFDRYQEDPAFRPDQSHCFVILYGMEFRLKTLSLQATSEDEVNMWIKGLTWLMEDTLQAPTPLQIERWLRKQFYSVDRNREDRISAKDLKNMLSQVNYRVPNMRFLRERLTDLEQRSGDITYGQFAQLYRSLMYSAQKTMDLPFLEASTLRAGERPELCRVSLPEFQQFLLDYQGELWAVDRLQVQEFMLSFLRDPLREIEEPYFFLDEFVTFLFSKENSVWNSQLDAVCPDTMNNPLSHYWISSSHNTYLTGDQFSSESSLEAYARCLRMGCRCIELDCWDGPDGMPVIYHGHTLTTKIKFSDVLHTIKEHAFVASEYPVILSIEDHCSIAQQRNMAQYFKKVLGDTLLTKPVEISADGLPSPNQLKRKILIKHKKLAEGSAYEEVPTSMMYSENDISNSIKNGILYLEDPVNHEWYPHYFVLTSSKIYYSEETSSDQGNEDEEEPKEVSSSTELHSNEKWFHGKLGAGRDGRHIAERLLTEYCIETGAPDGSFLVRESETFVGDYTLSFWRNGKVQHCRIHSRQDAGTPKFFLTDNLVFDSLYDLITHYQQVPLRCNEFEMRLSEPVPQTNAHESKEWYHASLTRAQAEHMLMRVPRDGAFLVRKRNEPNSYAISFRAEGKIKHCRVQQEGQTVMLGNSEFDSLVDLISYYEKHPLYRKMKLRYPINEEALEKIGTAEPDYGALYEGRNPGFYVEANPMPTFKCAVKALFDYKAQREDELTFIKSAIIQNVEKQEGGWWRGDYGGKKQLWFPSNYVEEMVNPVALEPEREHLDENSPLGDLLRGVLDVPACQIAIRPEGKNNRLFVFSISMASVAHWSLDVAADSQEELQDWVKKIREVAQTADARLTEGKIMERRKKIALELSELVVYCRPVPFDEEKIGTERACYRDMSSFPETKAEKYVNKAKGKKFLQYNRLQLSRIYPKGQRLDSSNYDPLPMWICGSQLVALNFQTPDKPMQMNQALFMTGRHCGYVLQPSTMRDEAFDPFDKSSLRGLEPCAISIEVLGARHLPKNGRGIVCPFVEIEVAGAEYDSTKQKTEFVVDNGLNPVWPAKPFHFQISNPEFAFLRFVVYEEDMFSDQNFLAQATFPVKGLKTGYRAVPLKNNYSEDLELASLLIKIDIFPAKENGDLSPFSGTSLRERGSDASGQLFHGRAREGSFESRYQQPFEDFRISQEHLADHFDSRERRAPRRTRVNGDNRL
# Chain of Transitional endoplasmic reticulum ATPase (P55072 whole entry): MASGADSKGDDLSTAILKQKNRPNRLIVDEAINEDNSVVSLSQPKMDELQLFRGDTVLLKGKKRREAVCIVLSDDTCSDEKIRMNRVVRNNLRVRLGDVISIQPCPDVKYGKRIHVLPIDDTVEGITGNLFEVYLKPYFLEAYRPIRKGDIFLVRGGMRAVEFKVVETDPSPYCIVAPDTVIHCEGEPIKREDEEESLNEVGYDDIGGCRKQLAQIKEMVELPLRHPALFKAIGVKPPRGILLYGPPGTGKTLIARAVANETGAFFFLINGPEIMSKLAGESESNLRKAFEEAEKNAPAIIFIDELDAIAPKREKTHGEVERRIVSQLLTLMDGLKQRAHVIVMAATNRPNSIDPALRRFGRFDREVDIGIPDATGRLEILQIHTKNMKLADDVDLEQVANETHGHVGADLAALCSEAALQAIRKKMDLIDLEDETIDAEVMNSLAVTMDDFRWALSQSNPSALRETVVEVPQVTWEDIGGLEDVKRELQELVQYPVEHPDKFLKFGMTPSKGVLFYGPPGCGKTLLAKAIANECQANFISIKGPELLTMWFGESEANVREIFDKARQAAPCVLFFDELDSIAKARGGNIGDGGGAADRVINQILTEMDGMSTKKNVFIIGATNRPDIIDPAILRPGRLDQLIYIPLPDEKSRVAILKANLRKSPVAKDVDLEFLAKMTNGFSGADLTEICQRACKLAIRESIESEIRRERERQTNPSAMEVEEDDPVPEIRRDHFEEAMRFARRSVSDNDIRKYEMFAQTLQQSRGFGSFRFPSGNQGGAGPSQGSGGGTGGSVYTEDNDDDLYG
# Chain of Nonstructural protein 1 (Q194T2 whole entry): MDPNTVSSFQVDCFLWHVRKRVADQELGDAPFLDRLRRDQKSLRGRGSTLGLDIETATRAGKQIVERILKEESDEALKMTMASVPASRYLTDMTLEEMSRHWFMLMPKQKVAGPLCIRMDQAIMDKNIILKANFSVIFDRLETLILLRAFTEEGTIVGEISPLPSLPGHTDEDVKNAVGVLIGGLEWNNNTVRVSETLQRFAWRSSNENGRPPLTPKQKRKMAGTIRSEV
# Chain of Eukaryotic translation initiation factor 4E (P63073 whole entry): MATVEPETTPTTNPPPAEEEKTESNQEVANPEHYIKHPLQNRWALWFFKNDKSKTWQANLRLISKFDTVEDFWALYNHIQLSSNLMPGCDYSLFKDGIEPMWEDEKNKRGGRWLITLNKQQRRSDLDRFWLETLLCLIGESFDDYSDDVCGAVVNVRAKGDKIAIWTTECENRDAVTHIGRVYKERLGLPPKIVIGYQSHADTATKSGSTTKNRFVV
# Chain of Glucose-6-phosphate 1-dehydrogenase (P11413 whole entry, the tested form may be a part): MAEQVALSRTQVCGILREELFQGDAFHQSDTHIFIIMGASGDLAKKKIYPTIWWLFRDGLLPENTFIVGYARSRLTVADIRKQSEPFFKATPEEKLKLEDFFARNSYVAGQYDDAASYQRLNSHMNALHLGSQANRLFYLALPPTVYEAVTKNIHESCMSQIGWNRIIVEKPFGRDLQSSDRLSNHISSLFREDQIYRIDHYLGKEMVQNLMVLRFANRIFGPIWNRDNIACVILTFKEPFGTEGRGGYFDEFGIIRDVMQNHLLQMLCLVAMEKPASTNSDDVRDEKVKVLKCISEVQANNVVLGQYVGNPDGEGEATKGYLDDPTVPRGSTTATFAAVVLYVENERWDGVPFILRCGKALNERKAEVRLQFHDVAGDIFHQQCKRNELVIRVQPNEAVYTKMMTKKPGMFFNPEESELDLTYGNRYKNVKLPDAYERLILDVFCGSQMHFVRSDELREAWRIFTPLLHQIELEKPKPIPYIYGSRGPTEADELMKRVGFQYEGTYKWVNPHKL
smiles,measurement,setting,value
CCc1nnc(NS(=O)(=O)c2ccc(NC(=S)NC(=O)/C=C/c3ccc(C(C)C)cc3)cc2)s1,IC50,[1],22.9 µM (active)
O=C(/C=C/c1ccco1)Nc1ccc(Oc2ccccc2)cc1,EC50,[2],21.2 µM (active)
same,IC50,[3],> 100 µM (active)
same,IC50,[4],> 100 µM (inactive)
COc1ccc(S(=O)(=O)Nc2cc(SCC(=O)O)c(O)c3ccccc23)cc1,CC50,[5],20.6 µM (active)
same,IC50,[6],21.1 µM (inactive)
same,IC50,[7],> 80 µM (inactive)
O=C1C(Nc2ccc(O)cc2)=C/C(=N/S(=O)(=O)c2cccs2)c2ccccc21,EC50,[8],2.88 µM (inconclusive)
same,IC50,[9],17.9 µM (active)
same,IC50,[10],0.975 µM (active)
same,CC50,[11],2.59 µM (active)
same,IC50,[12],29.3 µM (inactive)
CC1CC(=O)c2c(cc3c(-c4c(O)cc(O)c5c(O)c6c(cc45)OC(C)CC6=O)c(O)cc(O)c3c2O)O1 (stereo not given) [CEPHALOCHROMIN],IC50,[13],43.9 µM (not active)
same,EC50,[14],26.7 µM (active)
same,EC50,[15],21.7 µM (active)
